Test results reported in PubChem BioAssay (NCI).
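Interpolation was linear, between the two tested concentrations surrounding the appropriate level; five concentrations were tested over 48 hours in 96-well plates. TGI: concentration producing complete growth inhibition.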

Columns and labels:
Assay in all cases: DTP human tumour cell line panel, 48 h
DMS 273 small cell lung = tested on: DMS 273 small cell lung
HT29 colon = tested on: HT29 colon
SN12C renal = tested on: SN12C renal
COLO 205 colon = tested on: COLO 205 colon
DMS 114 small cell lung = tested on: DMS 114 small cell lung
RXF 393 renal = tested on: RXF 393 renal
UO-31 renal = tested on: UO-31 renal
A549 NSCLC = tested on: A549 NSCLC
SK-MEL-28 melanoma = tested on: SK-MEL-28 melanoma
UACC-62 melanoma = tested on: UACC-62 melanoma
LOX IMVI melanoma = tested on: LOX IMVI melanoma
TK-10 renal = tested on: TK-10 renal
OVCAR-5 ovarian = tested on: OVCAR-5 ovarian
HOP-18 NSCLC = tested on: HOP-18 NSCLC
K-562 leukemia = tested on: K-562 leukemia
MOLT-4 leukemia = tested on: MOLT-4 leukemia
ACHN renal = tested on: ACHN renal
IGROV1 ovarian = tested on: IGROV1 ovarian
OVCAR-4 ovarian = tested on: OVCAR-4 ovarian
OVCAR-8 ovarian = tested on: OVCAR-8 ovarian
LXFL 529 NSCLC = tested on: LXFL 529 NSCLC
SF-539 CNS = tested on: SF-539 CNS
HCC-2998 colon = tested on: HCC-2998 colon
NCI-H522 lung = tested on: NCI-H522 lung
NCI-H23 lung = tested on: NCI-H23 lung
SNB-19 CNS = tested on: SNB-19 CNS
786-0 renal = tested on: 786-0 renal
CAKI-1 renal = tested on: CAKI-1 renal
CCRF-CEM leukemia = tested on: CCRF-CEM leukemia
SNB-78 CNS = tested on: SNB-78 CNS
DLD-1 colon = tested on: DLD-1 colon
HCT-116 colon = tested on: HCT-116 colon
KM20L2 colon = tested on: KM20L2 colon
A498 renal = tested on: A498 renal
M19-MEL melanoma = tested on: M19-MEL melanoma
OVCAR-3 ovarian = tested on: OVCAR-3 ovarian
SF-295 CNS = tested on: SF-295 CNS
KM12 colon = tested on: KM12 colon
SK-OV-3 ovarian = tested on: SK-OV-3 ovarian
NCI-H460 lung = tested on: NCI-H460 lung
M14 melanoma = tested on: M14 melanoma
MALME-3M melanoma = tested on: MALME-3M melanoma
HOP-62 NSCLC = tested on: HOP-62 NSCLC
HCT-15 colon = tested on: HCT-15 colon
SNB-75 CNS = tested on: SNB-75 CNS
U251 CNS = tested on: U251 CNS
SF-268 CNS = tested on: SF-268 CNS
SK-MEL-2 melanoma = tested on: SK-MEL-2 melanoma
UACC-257 melanoma = tested on: UACC-257 melanoma
RPMI-8226 leukemia = tested on: RPMI-8226 leukemia
NCI-H226 lung = tested on: NCI-H226 lung
EKVX NSCLC = tested on: EKVX NSCLC
SW-620 colon = tested on: SW-620 colon
SR leukemia = tested on: SR leukemia
SK-MEL-5 melanoma = tested on: SK-MEL-5 melanoma
HOP-92 NSCLC = tested on: HOP-92 NSCLC
HL-60(TB) leukemia = tested on: HL-60(TB) leukemia

Measured: TGI

CC(=O)OC12c3ccccc3C1CCCC21OCCCO1 (stereo not given)
> 100 µM: DMS 273 small cell lung | HT29 colon | SN12C renal | COLO 205 colon | DMS 114 small cell lung | RXF 393 renal | UO-31 renal | A549 NSCLC | SK-MEL-28 melanoma | UACC-62 melanoma | LOX IMVI melanoma | TK-10 renal | OVCAR-5 ovarian | HOP-18 NSCLC | K-562 leukemia | MOLT-4 leukemia | ACHN renal | IGROV1 ovarian | OVCAR-4 ovarian | OVCAR-8 ovarian | LXFL 529 NSCLC | SF-539 CNS | HCC-2998 colon | NCI-H522 lung | NCI-H23 lung | SNB-19 CNS | 786-0 renal | CAKI-1 renal | CCRF-CEM leukemia | SNB-78 CNS | DLD-1 colon | HCT-116 colon | KM20L2 colon | A498 renal | M19-MEL melanoma | OVCAR-3 ovarian | SF-295 CNS | KM12 colon | SK-OV-3 ovarian | NCI-H460 lung | M14 melanoma | MALME-3M melanoma | HOP-62 NSCLC | HCT-15 colon | SNB-75 CNS | U251 CNS | SF-268 CNS | SK-MEL-2 melanoma | UACC-257 melanoma | RPMI-8226 leukemia | NCI-H226 lung | EKVX NSCLC | SW-620 colon

Nc1nc(N)c2ncn(CCCC(c3ccccc3)P(=O)(O)O)c2n1 (stereo not given)
36 µM: NCI-H23 lung
> 100 µM: DMS 273 small cell lung | HT29 colon | SR leukemia | SN12C renal | COLO 205 colon | DMS 114 small cell lung | UO-31 renal | A549 NSCLC | SK-MEL-5 melanoma | SK-MEL-28 melanoma | UACC-62 melanoma | LOX IMVI melanoma | TK-10 renal | OVCAR-5 ovarian | HOP-18 NSCLC | K-562 leukemia | ACHN renal | IGROV1 ovarian | OVCAR-8 ovarian | LXFL 529 NSCLC | SF-539 CNS | HCC-2998 colon | NCI-H522 lung | SNB-19 CNS | 786-0 renal | CAKI-1 renal | CCRF-CEM leukemia | SNB-78 CNS | HOP-92 NSCLC | DLD-1 colon | HCT-116 colon | KM20L2 colon | A498 renal | M19-MEL melanoma | OVCAR-3 ovarian | SF-295 CNS | KM12 colon | SK-OV-3 ovarian | NCI-H460 lung | M14 melanoma | MALME-3M melanoma | HOP-62 NSCLC | HCT-15 colon | SNB-75 CNS | U251 CNS | SF-268 CNS | HL-60(TB) leukemia | SK-MEL-2 melanoma | UACC-257 melanoma | RPMI-8226 leukemia | SW-620 colon
